Experimental data as given in ChEMBL document CHEMBL4483862, “Open-source discovery of chemical leads for next-generation chemoprotective antimalarials” (2018).
pIC50: −log10 of the molar value.

Test system: Plasmodium berghei
Assay: Luciferase/luciferin-expressing antifolate-resistant parasites were used to infect a culture of HepG2 cells that were pre-incubated with compounds. Infected hepatocytes emit light due to the luciferase reaction. Assay results are presented as the percent inhibition of light emission compared to control. […]
Format: functional
Details: sporozoite; for IC90: read-out: LUCIFERASE INFECTION ASSAY - IC90
[1] = read-out: LUCIFERASE INFECTION ASSAY - IC50

Row | SMILES | IC90 [µM] | pIC50 [1] | other results
1 | CC1CCC(N(C)C(=O)C2CCN(S(=O)(=O)c3ccc4c(c3)CCC4)CC2)CC1 (stereo unspecified) | > 10 | – | pIC50 (PBLUC_HILL_SLOPE 16.6, PBLUC_R_SQUARED 0.0251, read-out: LUCIFERASE INFECTION ASSAY - IC50): 5.01
2 | CC(C)n1ncc2cc(C(=O)Nc3ccc4oc5ccccc5c4c3)cnc21 | 6.74 | – | pIC50 (HEPG2TOX_HILL_SLOPE 0.893, HEPG2TOX_R_SQUARED 0.928, PBLUC_HILL_SLOPE 1.69, PBLUC_R_SQUARED 0.728, read-out: LUCIFERASE INFECTION ASSAY - IC50): 5.74
3 | COc1ccc(-c2nc3ccc(NC(=O)Nc4ccc(C)cc4)cn3n2)cc1 | 7.53 | – | pIC50 (HEPG2TOX_HILL_SLOPE 50, HEPG2TOX_R_SQUARED 0.291, PBLUC_HILL_SLOPE 5.1, PBLUC_R_SQUARED 0.322, read-out: LUCIFERASE INFECTION ASSAY - IC50): 5.31
4 | Cc1cc(C)n2nc(SC(C)C(=O)N3CCCc4ccccc43)nc2n1 (stereo unspecified) | > 2 | < 5.70 | –
5 | CC(=O)n1ncc(Sc2ccc(Cl)cc2)c1-c1ccc(Cl)cc1 | > 9.08 | – | pIC50 (FFLUC_HILL_SLOPE 25.1, FFLUC_R_SQUARED 0.0752, read-out: LUCIFERASE INFECTION ASSAY - IC50): < 5.04
6 | O=C(Nc1ccc(-n2cnc3ccccc32)cc1)c1ccc(NC(=O)C2CC2)cc1 | > 10 | – | pIC50 (HEPG2TOX_HILL_SLOPE 1.98, HEPG2TOX_R_SQUARED 0.988, PBLUC_HILL_SLOPE 3.86, PBLUC_R_SQUARED 0.781, read-out: LUCIFERASE INFECTION ASSAY - IC50): 5.18
7 | O=C(Nc1cccc(C#Cc2ccccc2)c1)c1ccoc1 | > 10 | < 5.00 | –
8 | CC(C)CC(=O)NNc1ccnc2cc(Cl)ccc12 | 4.29 | – | pIC50 (HEPG2TOX_HILL_SLOPE 0.439, HEPG2TOX_R_SQUARED 0.287, PBLUC_HILL_SLOPE 11, PBLUC_R_SQUARED 0.716, read-out: LUCIFERASE INFECTION ASSAY - IC50): 5.45
9 | CC(C)c1ccc(/C=C/C2=NNC(=O)CC2)cc1 | > 13.6 | – | pIC50 (HEPG2TOX_HILL_SLOPE 0.687, HEPG2TOX_R_SQUARED 0.88, PBLUC_HILL_SLOPE 0.307, PBLUC_R_SQUARED 0.14, read-out: LUCIFERASE INFECTION ASSAY - IC50): < 4.87
10 | O=C1/C(=C/Nc2cccc(O)c2)c2ccccc2C(=O)N1Cc1ccccc1 | 9.61 | – | pIC50 (PBLUC_HILL_SLOPE 10.5, PBLUC_R_SQUARED 0.272, read-out: LUCIFERASE INFECTION ASSAY - IC50): 5.11
11 | N#CCc1c(C#N)c(N)nc(Nc2ccc(F)cc2F)c1C#N | 6.78 | 5.44 | –
12 | COCC(C)NS(=O)(=O)c1c(C(C)C)cc(C(C)C)cc1C(C)C (stereo unspecified) | > 9.28 | < 5.03 | –
13 | COc1cccc(Nc2nc(-c3ccc(CCC(C)NC(C)=O)cc3)cs2)c1 (stereo unspecified) | 8.54 | – | pIC50 (HEPG2TOX_HILL_SLOPE 17.1, HEPG2TOX_R_SQUARED 0.93, PBLUC_HILL_SLOPE 0.895, PBLUC_R_SQUARED 0.745, read-out: LUCIFERASE INFECTION ASSAY - IC50): 6.13
14 | O=C1C=CC(=O)N1c1ccccc1OC(F)(F)F | > 12.8 | – | pIC50 (FFLUC_HILL_SLOPE 21.4, FFLUC_R_SQUARED 0.595, PBLUC_HILL_SLOPE 3.16, PBLUC_R_SQUARED 0.111, read-out: LUCIFERASE INFECTION ASSAY - IC50): 5.09
15 | O=C(NCCN1CCc2ccccc2C1)c1cc2ccccc2cc1O | 3.77 | – | pIC50 (PBLUC_HILL_SLOPE 16.8, PBLUC_R_SQUARED 0.317, read-out: LUCIFERASE INFECTION ASSAY - IC50): 5.48
16 | CS(=O)(=O)Nc1cccc(-c2cn3c(-c4cccc(O)c4)cnc3cn2)c1 | 8.16 | – | pIC50 (HEPG2TOX_HILL_SLOPE 7.05, HEPG2TOX_R_SQUARED 0.671, PBLUC_HILL_SLOPE 23.9, PBLUC_R_SQUARED 0.257, read-out: LUCIFERASE INFECTION ASSAY - IC50): 5.13
17 | CN(CC(=O)Nc1nc(C23CC4CC(CC(C4)C2)C3)cs1)S(=O)(=O)c1cccs1 | 3.45 | – | pIC50 (FFLUC_HILL_SLOPE 3.68, FFLUC_R_SQUARED 0.43, PBLUC_HILL_SLOPE 112, PBLUC_R_SQUARED 0.327, read-out: LUCIFERASE INFECTION ASSAY - IC50): 5.47

Row | SMILES | IC90 [µM] | pIC50 [1] | other results
18 | O=c1c(Cl)c(Cl)cnn1-c1cc(Cl)cc(Cl)c1 | 4.28 | – | pIC50 (FFLUC_HILL_SLOPE 2.56, FFLUC_R_SQUARED 0.592, HEPG2TOX_HILL_SLOPE 5.14, HEPG2TOX_R_SQUARED 0.846, PBLUC_HILL_SLOPE 13.3, PBLUC_R_SQUARED 0.218, read-out: LUCIFERASE INFECTION ASSAY - IC50): 5.44
19 | CCOc1cc2ccccc2cc1C(=O)NNC(=O)c1ccccn1 | 1.23 | – | pIC50 (HEPG2TOX_HILL_SLOPE 1.13, 0.817, HEPG2TOX_R_SQUARED 0.858, 0.909, PBLUC_HILL_SLOPE 4.86, PBLUC_R_SQUARED 0.852, read-out: LUCIFERASE INFECTION ASSAY - IC50): 6.11
20 | O=C(CN1CCN(C(=O)c2ccccc2COc2ccccc2)CC1)Nc1ccccc1Cl | > 10 | < 5.00 | –
21 | CC(C)C1CCC(C)C(OCC(O)CN2CCN(Cc3ccc4c(c3)OCO4)CC2)C1 (stereo unspecified) | > 10 | < 5.00 | –
22 | N#C/C(=C\c1ccc2c(c1)OCCO2)c1ccc(C(F)(F)F)cn1 | > 10 | < 5.00 | –
23 | O=C(Nc1ccc(F)cc1)c1ccc(CN2CCc3ccccc3C2)cc1 | > 9.16 | < 5.04 | –
24 | Cc1nnc(NC(=O)c2ccc3c(c2)SC2=NS(=O)(=O)CCN23)s1 | > 10 | < 5.00 | –
25 | CCn1c(=O)c(C)nc2cc(C(=O)Nc3ccc(C(C)(C)C)cc3)ccc21 | 1.74 | – | pIC50 (HEPG2TOX_HILL_SLOPE 2.17, HEPG2TOX_R_SQUARED 0.922, PBLUC_HILL_SLOPE 3.75, PBLUC_R_SQUARED 0.489, read-out: LUCIFERASE INFECTION ASSAY - IC50): 6.02
26 | O=C(Cc1ccccc1)Nc1ccccc1C(=O)Nc1nc2ccccc2[nH]1 | > 10 | – | pIC50 (HEPG2TOX_HILL_SLOPE 7.34, HEPG2TOX_R_SQUARED 0.432, read-out: LUCIFERASE INFECTION ASSAY - IC50): < 5.00
27 | COC(=O)c1c(C)[nH]c(C(=O)N2CCCN(Cc3ccc(C(F)(F)F)cc3)CC2)c1C | 3.51 | – | pIC50 (HEPG2TOX_HILL_SLOPE 0.883, HEPG2TOX_R_SQUARED 0.94, PBLUC_HILL_SLOPE 33.9, PBLUC_R_SQUARED 0.31, read-out: LUCIFERASE INFECTION ASSAY - IC50): 5.48
28 | CN(Cc1nc2ccccc2s1)C(=O)CSc1nnc(N2CCCCC2)n1-c1ccccc1 | > 10 | < 5.00 | –
29 | CN1C(c2ccc(F)cc2)=CS/C1=C(/C#N)c1nnc(N2CCOCC2)n1-c1ccccc1 | > 10 | – | pIC50 (PBLUC_HILL_SLOPE 2.7, PBLUC_R_SQUARED 0.681, read-out: LUCIFERASE INFECTION ASSAY - IC50): 5.16
30 | Clc1nc(NCc2ccc3c(c2)OCO3)c2[nH]cnc2n1 | > 10.9 | – | pIC50 (PBLUC_HILL_SLOPE 2.33, PBLUC_R_SQUARED 0.359, read-out: LUCIFERASE INFECTION ASSAY - IC50): 5.01
31 | Cc1ncc(CC(=O)n2cc(C(=O)c3cc(F)ccc3O)cn2)s1 | > 10 | – | pIC50 (PBLUC_HILL_SLOPE 0.716, PBLUC_R_SQUARED 0.277, read-out: LUCIFERASE INFECTION ASSAY - IC50): < 5.00
32 | C=CS(=O)(=O)Oc1cc(C)cc(C)c1 | > 10 | – | pIC50 (HEPG2TOX_HILL_SLOPE 2.11, HEPG2TOX_R_SQUARED 0.803, read-out: LUCIFERASE INFECTION ASSAY - IC50): < 5.00
33 | CC(C)(C)c1ccc(-c2cnc3cnc(-c4cccnc4)cn23)cc1 | 5.11 | – | pIC50 (PBLUC_HILL_SLOPE 7.55, PBLUC_R_SQUARED 0.755, read-out: LUCIFERASE INFECTION ASSAY - IC50): 5.42
